Laboratory results reported in ChEMBL document CHEMBL4699518, “Cytotoxic Xanthone Derivatives from the Mangrove-Derived Endophytic Fungus Peniophora incarnata Z4” (J Nat Prod, 2020).

Columns and labels:
Type in all cases: functional, cell-based
[1] = test system: MCF7; assay: Cytotoxicity against human MCF7 cells assessed as reduction in cell viability after 48 hrs by MTT assay; settings: MCF7, 48 h
[2] = test system: A-375; assay: Cytotoxicity against human A-375 cells assessed as reduction in cell viability after 48 hrs by MTT assay; settings: A-375, 48 h
[3] = test system: HL-60; assay: Cytotoxicity against human HL-60 cells assessed as reduction in cell viability after 48 hrs by MTT assay; settings: HL-60, 48 h

SMILES: COC(=O)CCc1oc2cccc(O)c2c(=O)c1[C@H](O)C(=O)OC
- IC50 [1]: > 10 µM
- IC50 [2]: > 10 µM
- IC50 [3]: > 10 µM

SMILES: COC(=O)c1c(N[C@@H]2Cc3oc4cccc(O)c4c(=O)c3[C@](O)(C(=O)OC)[C@@H]2O)ccc2oc3cccc(O)c3c(=O)c12
- IC50 [1]: > 10 µM
- IC50 [2]: > 10 µM
- IC50 [3]: > 10 µM

SMILES: COC(=O)c1c(O)ccc2oc3cc(O)cc(O)c3c(=O)c12
- IC50 [1]: > 10 µM
- IC50 [2]: > 10 µM
- IC50 [3]: > 10 µM

SMILES: COC(=O)[C@@]1(O)c2c(oc3cccc(O)c3c2=O)C[C@@H](OC)[C@H]1O
- IC50 [1]: > 10 µM
- IC50 [2]: > 10 µM
- IC50 [3]: > 10 µM

SMILES: COC(=O)[C@@]1(O)c2c(oc3cccc(O)c3c2=O)[C@@H](O)C[C@@H]1O
- IC50 [1]: > 10 µM
- IC50 [2]: > 10 µM
- IC50 [3]: > 10 µM

SMILES: COC(=O)[C@@]1(O)c2c(oc3cccc(O)c3c2=O)C[C@@H](S)[C@@H]1O
- IC50 [1]: 6.5 µM
- IC50 [2]: 8.6 µM
- IC50 [3]: 4.9 µM

SMILES: O=C1N[C@@H]2Cc3oc4cccc(O)c4c(=O)c3[C@@]1(O)[C@@H]2O
- IC50 [1]: > 10 µM
- IC50 [2]: > 10 µM
- IC50 [3]: > 10 µM

SMILES: COc1cccc2c1C(=O)c1c(O)c3c(c(O)c1C2=O)C[C@@](O)(C(=O)CO)C[C@@H]3O[C@H]1C[C@H](N)[C@H](O)[C@H](C)O1 [DOXORUBICIN]
- IC50 [2]: 2.1 µM
- IC50 [3]: 1.2 µM
